Data reported in publication PMC8537897, “Design, Synthesis and Biological Evaluation of Aromatase Inhibitors Based on Sulfonates and Sulfonamides of Resveratrol” (Pharmaceuticals, 2021).
Like-named read-outs stand apart in the source and are kept apart here.

How the values were obtained:
human aromatase = target: T1, human aromatase (Homo sapiens, UniProt P11511); test: Aromatase inhibition, fluorimetric assay kit (Aromatase-CYP19A Inhibitor Screening kit, BioVision); format: biochemical; settings: for Aromatase inhibition (in words): screening at 1 µM
T1 construct: purchased BioVision, Milpitas, CA, USA
T1 sequence (P11511 1-503): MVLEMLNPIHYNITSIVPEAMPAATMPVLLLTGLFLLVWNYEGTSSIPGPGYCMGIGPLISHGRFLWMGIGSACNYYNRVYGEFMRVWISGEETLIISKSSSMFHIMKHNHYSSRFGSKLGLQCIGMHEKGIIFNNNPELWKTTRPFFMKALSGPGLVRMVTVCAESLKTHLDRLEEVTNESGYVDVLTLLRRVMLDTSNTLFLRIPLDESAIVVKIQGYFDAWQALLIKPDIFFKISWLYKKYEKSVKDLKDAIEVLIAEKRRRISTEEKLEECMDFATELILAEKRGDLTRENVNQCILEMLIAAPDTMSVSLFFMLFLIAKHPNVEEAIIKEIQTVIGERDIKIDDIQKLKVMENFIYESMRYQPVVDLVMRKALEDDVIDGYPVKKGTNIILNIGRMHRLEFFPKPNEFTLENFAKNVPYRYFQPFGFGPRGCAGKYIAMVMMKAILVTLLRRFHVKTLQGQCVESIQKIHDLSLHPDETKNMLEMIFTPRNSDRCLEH
Procedure: The activity was measured each minute for 60 min and the value obtained for each compound after 10 min was chosen to calculate the percentage of the aromatase inhibition.
The aromatase inhibitory activity was determined using a commercial fluorimetric assay kit (Aromatase-CYP19A Inhibitor Screening kit, BioVision, Milpitas, CA, USA), as reported elsewhere. The assay utilizes a fluorogenic aromatase substrate that is converted into a highly fluorescent metabolite detected in the visible range (Ex/Em 488/527 nm). […] During the incubation, the Aromatase Substrate/NADP+ mixture was prepared, and the reaction was started by adding 30 µL of this solution to each well (aside from the background control), reaching a final reaction volume of 100 µL/well. The fluorescence emission (527 nm) was measured immediately (within 1 min) by means of a fluorometer equipped with a 488 nm filter (GloMax®-Multi Detection System, Promega, Madison, WI, USA) and afterwards monitored for 60 min. […] The assay was performed in the same experimental conditions used for the initial screening of compounds. Dose–response curves were fitted with GraphPad Prism 5.0 (GraphPad Software, San Diego, CA, USA).

[1] = system: MCF7 breast cancer cell line; test: Cell metabolic activity / viability (MTT assay) on MCF7; format: cell-based, human; settings: for IC50: Homo sapiens, MTT, tested 0 to 500 µM;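 on all read-outs here: MTT optical density read-out in human MCF7 cells, normalised to DMSO vehicle-treated cells as 100%, with IC50 derived from fitted concentration–response curves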
Procedure: Human skin fibroblasts (HFF-1, CVCL_3285) and human breast cancer MCF7 (HTB-22™, CVCL_0031) were purchased from ATCC and maintained in Dulbecco’s modified Eagle’s medium (DMEM) high glucose (EuroClone, Milan, Italy) supplemented with 10% of fetal bovine serum (FBS) and 1% of penicillin/streptomycin (Gibco—Thermo Fisher Scientific, MD, USA).
Cell metabolic activity of HFF-1 and MCF7 cells was assessed by MTT (3-(4,5-Dimethylthiazol-2-yl)-2,5-Diphenyltetrazolium Bromide) test (Sigma Aldrich, Milan, Italy). […] After the established exposure times, cells were incubated with MTT (0.5 mg/mL) and the optical density was measured as reported elsewhere [63]. Results were expressed as the percentage of cells in the presence of vehicle (DMSO) set as 100% and each experiment was performed in triplicate (n = 3). Concentration–response curves and IC50 were fitted and calculated with GraphPad Prism 5.0 (GraphPad Software, San Diego, CA, USA).

MCF7 cells = test: Cytotoxicity test (lactate dehydrogenase release); format: cell-based, human; settings: MCF7, 0–250 µM, 24 h
Procedure: To assess whether the decrease in metabolic activity is a consequence of cytotoxic occurrence in the presence of compounds 1b, 1c, and 1j, lactate dehydrogenase (LDH) released from MCF7 was measured in response to loading concentrations of 0–250 µM after a 24 h exposure. […] It is, therefore, plausible to assume that all tested compounds exert their anti-proliferative effect on MCF7 cells through cytotoxic induction and 1c is the most promising compound, being active already at lower doses.
MCF7 cells were seeded and stimulated as previously described for the MTT test. After the exposure time, cell supernatants were collected, centrifuged at 450× g for 4 min, and stored on ice. In order to quantify the cytotoxicity of loading concentrations of compounds 1b, 1c, and 1j (0–250 µM), the CytoTox 96® Non-Radioactive Cytotoxicity Assay (Promega Corporation, Madison, WI, USA) was performed as previously reported. The results were normalized on MTT absorbances and expressed as fold increases on the LDH released by cultures in the presence of vehicle (DMSO) set as 1.

[2] = MCF7, 24 h, 24 h, read-out: MCF7 Cells IC50 24 h
[3] = MCF7, 72 h, 72 h, read-out: MCF7 Cells IC50 72 h

What does the source list for `O=S(=O)(Oc1ccc(/C=C/c2ccccc2)cc1)c1ccccc1` [1a, 4-[(E)-2-Phenylvinyl]phenylbenzenesulfonate]?
Aromatase inhibition (in words) (human aromatase): very low activity; melting point: 127 to 130 °C

Which inhibition at 1 µM (human aromatase) does the source give for `O=[N+]([O-])c1cccc(S(=O)(=O)Oc2ccc(/C=C/c3ccccc3)cc2)c1` [1b, 4-[(E)-2-Phenylvinyl]phenyl 3-nitrobenzenesulfonate] here?
The inhibition at 1 µM was 97%.

And the IC50 (human aromatase; tested at concentrations from 0.01 to 100 μM, mean of triplicate determinations)?
Its IC50 is 2.51 µM.

And the IC50 [1, 2]?
Its IC50 is 159 ± 9.9 µM.

And the IC50 [1, 3]?
The IC50 was 240 ± 6.7 µM.

What about the “Viability (% of control) - 24 h” value ([1]; MCF7, 10 µM, 24 h) of the same compound?
The value was 69.32 ± 14.99 % of control.

And the “Viability (% of control) - 72 h” value ([1]; MCF7, 10 µM, 72 h)?
Its value is 98.33 ± 5.24 % of control.

And the “Viability (% of control) - 24 h” value ([1]; MCF7, 25 µM, 24 h)?
Its value is 79.12 ± 9.66 % of control.

What about the “Viability (% of control) - 72 h” value ([1]; MCF7, 25 µM, 72 h) of the same compound?
Its value is 99.99 ± 9.30 % of control.

What about the “Viability (% of control) - 24 h” value ([1]; MCF7, 50 µM, 24 h) of the same compound?
Its value is 80.69 ± 4.08 % of control.

What about the “Viability (% of control) - 72 h” value ([1]; MCF7, 50 µM, 72 h) of the same compound?
Its value is 93.39 ± 5.39 % of control.

What about the “Viability (% of control) - 24 h” value ([1]; MCF7, 100 µM, 24 h) of the same compound?
The value was 73.93 ± 1.87 % of control.

And the “Viability (% of control) - 72 h” value ([1]; MCF7, 100 µM, 72 h)?
The value was 77.31 ± 7.02 % of control.

And the “Viability (% of control) - 24 h” value ([1]; MCF7, 250 µM, 24 h)?
The value was 45.57 ± 3.42 % of control.

What about the “Viability (% of control) - 72 h” value ([1]; MCF7, 250 µM, 72 h) of the same compound?
Its value is 57.01 ± 1.01 % of control.

And the “Viability (% of control) - 24 h” value ([1]; MCF7, 500 µM, 24 h)?
Its value is 35.83 ± 2.22 % of control.

What about the “Viability (% of control) - 72 h” value ([1]; MCF7, 500 µM, 72 h) of the same compound?
The value was 36.11 ± 0.35 % of control.

What about the “LDH release, dose dependence (in words)” value (MCF7 cells) of the same compound?
The value was “raises only at the highest concentration administered (250 µM)”.

And the melting point?
Its melting point is 152 to 155 °C.

For `N#Cc1ccc(S(=O)(=O)Oc2ccc(/C=C/c3ccccc3)cc2)cc1` [1e, 4-[(E)-2-Phenylvinyl]phenyl 4-cyanobenzenesulfonate], which inhibition at 1 µM (human aromatase) is on record?
Its inhibition at 1 µM is 56.1%.

With `COc1ccc(S(=O)(=O)Oc2ccc(/C=C/c3ccccc3)cc2)c(OC)c1` [1g, 4-[(E)-2-Phenylvinyl]phenyl 2,4-dimethoxybenzenesulfonate] as the compound, how does the melting point read?
Its melting point is 141 to 142 °C.

With `CCS(=O)(=O)Oc1ccc(/C=C/c2ccccc2)cc1` [1i, 4-[(E)-2-Phenylvinyl]phenyl ethanesulfonate] as the compound, how does the inhibition at 1 µM (human aromatase) read?
Its inhibition at 1 µM is 100%.

And the melting point?
The melting point was 112 to 114 °C.

For `O=S(=O)(Oc1ccc(/C=C/c2ccccc2)cc1)c1ccc(Cl)s1` [1k, 4-[(E)-2-Phenylvinyl]phenyl 5-chlorothiophene-2-sulfonate], which inhibition at 1 µM (human aromatase) is on record?
The inhibition at 1 µM was 60.3%.

What about the melting point of the same compound?
The melting point was 160 to 162 °C.

With `O=S(=O)(Nc1ccc(/C=C/c2ccccc2)cc1)c1ccccc1` [2a, N-{4-[(E)-2-Phenylvinyl]phenyl}benzenesulfonamide] as the compound, how does the inhibition at 1 µM (human aromatase) read?
The inhibition at 1 µM was 47.8%.

And the melting point?
Its melting point is 160 to 162 °C.

Which inhibition at 1 µM (human aromatase) does the source give for `O=[N+]([O-])c1cccc(S(=O)(=O)Nc2ccc(/C=C/c3ccccc3)cc2)c1` [2b, 3-Nitro-N-{4-[(E)-2-phenylvinyl]phenyl}benzenesulfonamide] here?
Its inhibition at 1 µM is 67.3%.

What about the melting point of the same compound?
The melting point was 210 to 211 °C.

With `Cc1ccc(S(=O)(=O)Nc2ccc(/C=C/c3ccccc3)cc2)cc1[N+](=O)[O-]` [2c, 4-Methyl-3-nitro-N-{4-[(E)-2-phenylvinyl]phenyl}benzenesulfonamide] as the compound, how does the inhibition at 1 µM (human aromatase) read?
Its inhibition at 1 µM is 44.8%.

And the melting point?
Its melting point is 246 to 247 °C.

With `Cc1ccc(S(=O)(=O)Nc2ccc(/C=C/c3ccccc3)cc2)cc1` [2d, 4-Methyl-N-{4-[(E)-2-phenylvinyl]phenyl}benzenesulfonamide] as the compound, how does the melting point read?
The melting point was 182 to 183 °C.

With `N#Cc1ccc(S(=O)(=O)Nc2ccc(/C=C/c3ccccc3)cc2)cc1` [2e, 4-Cyano-N-{4-[(E)-2-phenylvinyl]phenyl}benzenesulfonamide] as the compound, how does the melting point read?
The melting point was 238 to 239 °C.

With `CC(=O)Nc1ccc(S(=O)(=O)Nc2ccc(/C=C/c3ccccc3)cc2)cc1` [2f, N-{4-[({4-[(E)-2-Phenylvinyl]phenyl}amino)sulfonyl]phenyl}acetamide] as the compound, how does the melting point read?
Its melting point is 230 to 231 °C.

For `COc1ccc(S(=O)(=O)Nc2ccc(/C=C/c3ccccc3)cc2)c(OC)c1` [2g, 2,4-Dimethoxy-N-{4-[(E)-2-phenylvinyl]phenyl}benzenesulfonamide], which melting point is on record?
Its melting point is 213 to 215 °C.

Which melting point does the source give for `CS(=O)(=O)Nc1ccc(/C=C/c2ccccc2)cc1` [2h, N-{4-[(E)-2-Phenylvinyl]phenyl}methanesulfonamide] here?
Its melting point is 250 to 251 °C.

Which melting point does the source give for `CCS(=O)(=O)Nc1ccc(/C=C/c2ccccc2)cc1` [2i, N-{4-[(E)-2-Phenylvinyl]phenyl}ethanesulfonamide] here?
The melting point was 230 to 231 °C.

Which results are given for `O=S(=O)(Nc1ccc(/C=C/c2ccccc2)cc1)c1ccc(Cl)s1` [2k, 5-Chloro-N-{4-[(E)-2-phenylvinyl]phenyl}thiophene-2-sulfonamide]?
Aromatase inhibition (in words) (human aromatase): inactive; melting point: 200 to 202 °C

With `Oc1ccc(/C=C/c2cc(O)cc(O)c2)cc1` [RSV, trans-3,4′,5-trihydroxystilbene, reference compound] as the compound, how does the IC50 [1, 2] read?
Its IC50 is > 250 µM.

What about the IC50 [1, 3] of the same compound?
Its IC50 is 83 ± 3.8 µM.

What about the “Viability (% of control) - 24 h” value ([1]; MCF7, 10 µM, 24 h) of the same compound?
Its value is 80.27 ± 3.18 % of control.

And the “Viability (% of control) - 72 h” value ([1]; MCF7, 10 µM, 72 h)?
The value was 91.92 ± 5.44 % of control.

And the “Viability (% of control) - 24 h” value ([1]; MCF7, 25 µM, 24 h)?
Its value is 84.94 ± 6.59 % of control.

And the “Viability (% of control) - 72 h” value ([1]; MCF7, 25 µM, 72 h)?
Its value is 73.93 ± 9.52 % of control.

What about the “Viability (% of control) - 24 h” value ([1]; MCF7, 50 µM, 24 h) of the same compound?
The value was 87.44 ± 1.93 % of control.

And the Metabolically active cells ([1]; MCF7, 50 µM, 24 h, DMSO alone = 100%)?
The Metabolically active cells was “slightly active at this concentration”.

And the “Viability (% of control) - 72 h” value ([1]; MCF7, 50 µM, 72 h)?
Its value is 66.54 ± 5.77 % of control.

And the “Viability (% of control) - 24 h” value ([1]; MCF7, 100 µM, 24 h)?
Its value is 78.29 ± 4.03 % of control.

And the “Viability (% of control) - 72 h” value ([1]; MCF7, 100 µM, 72 h)?
Its value is 47.75 ± 2.67 % of control.

What about the “Viability (% of control) - 24 h” value ([1]; MCF7, 250 µM, 24 h) of the same compound?
Its value is 60.29 ± 0.93 % of control.

And the “Viability (% of control) - 72 h” value ([1]; MCF7, 250 µM, 72 h)?
Its value is 38.05 ± 8.70 % of control.

What about the “Viability (% of control) - 24 h” value ([1]; MCF7, 500 µM, 24 h) of the same compound?
Its value is 34.30 ± 5.01 % of control.

And the “Viability (% of control) - 72 h” value ([1]; MCF7, 500 µM, 72 h)?
Its value is 15.33 ± 4.88 % of control.
